A short description of data set [1]: Conversion into parent compound (active form) in monkey liver S9 fraction. It is filed as in vitro ADME. To be noted: monkey liver S9 reaction solution, 0.2 mg/mL protein, 10 μmol/L compound, pH 7.4, 37° C., 0, 30, 60 minutes, LC-MS (FIG. 2). The protocol: (§1) A suspension (pH of 7.4) containing human and monkey liver S9 fractions (with a protein concentration of 0.22 mg/mL), 0.5 mmol/L magnesium chloride, and 100 mmol/L tris-HCl was prepared over ice (various reaction solutions A). 30 μL of a 100 μmol/mL aqueous solution of the compound according to the present invention (the compound of Example 1) was added to the various reaction solutions A (for a final compound concentration of 10 μmol/L) to obtain various liver S9 reaction solutions (with a final protein concentration of 0.2 mg/mL), and these were stored on ice until (2) was carried out. A control sample was prepared (reaction buffer solution) by adding 30 μL of a […] aqueous solution of the compound according to the present invention (the compound of Example 1) to 0.27 mL of a buffer (pH of 7.4) containing 0.5 mmol/L magnesium chloride and 100 mmol/L tris-HCl. […]
(§2) (3) The Concentrations of the Compound According to the Present Invention (the Compound of Example 1) and the Parent Compound (the Compound of Reference Example 1) in the Reaction Solution were Quantified by LC-MS.
(§3) The concentrations of the compound according to the present invention (the compound of Example 1) and the parent compound (the compound of Reference Example 1) in the reaction solution were measured by the method described in 2. above. […]

The nature of data set [2]: Conversion into parent compound (active form) in human liver S9 fraction. It counts as in vitro ADME. The settings on record: human liver S9 reaction solution, 0.2 mg/mL protein, 10 μmol/L compound, pH 7.4, 37° C., 0, 30, 60 minutes, LC-MS (FIG. 1). The protocol: as §1, §2, §3
A short description of data set [3]: Comparative test of solubility in water (Britton-Robinson buffer). The settings on record: aqueous buffer, Britton-Robinson buffer (ion strength of 0.3) at 25° C. It counts as physicochemical. As for the experimental part: 3-(3-(4-(Pyridin-2-ylmethoxy)-benzyl)-isoxazol-5-yl)-pyridin-2-ylamine described in Reference Example 1, which is the parent compound, and the compound of Example 1 were compared for solubility in a Britton-Robinson buffer (ion strength of 0.3) at 25° C.

For data set [4], the system named is A. fumigatus Tsukuba strain. The experiment in a line: Anti-Aspergillus activity (MIC measurement). To be noted: RPMI1640 medium, 42-48 hours at 35° C., visual inspection, read-out: Anti-Aspergillus activity (minimum inhibitory concentration, MIC). It counts as cell-based. The protocol: (§4) For the C. albicans CAF2-1 strain, a fungal suspension from a standing culture for 48 hours at 30° C. in a Sabouraud dextrose liquid culture medium (SDB) was diluted with RPMI1640 medium to adjust a fungal suspension of 1.2×10^3 cells/mL. For the A. fumigatus Tsukuba strain, −80° C. stored strain was diluted with RPMI1640 medium to adjust to a fungal suspension of 4.5×10^3 cells/mL.
(§5) Using a U-bottomed 96 well plate, 8 samples/plate (A to H) of sample dilution solutions were prepared. On the 2nd to 12th rows were dispensed 10 μl of dimethyl sulfoxide solution. Weighted sample was dissolved in dimethyl sulfoxide to prepare a 2.5 mg/mL solution, 20 μl of this solution was added to the first row of the prepared plate, and 12 steps of two-folded step dilutions (10 μl of solution+10 μl of dimethyl sulfoxide solution) were performed on the plate. This sample dilution solution was dispensed in the amount of 1 μl to a flat-bottomed 96 well plate for MIC measurement to prepare a sample dilution plate.
(§6) The fungal suspension prepared in (1) was used in the amount of […] to inoculate the flat-bottomed 96 well plate containing 1 μL/well of the test compound dilution prepared in (2), and a standing culture was carried out aerobically for 42-48 hours at 35° C.

Data set [5] has as its system C. albicans CAF2-1 strain. The experiment in a line: Anti-Candida activity (MIC measurement). It is filed as cell-based. The settings on record: CAF21STRAIN, RPMI1640 medium, 42-48 hours at 35° C., visual inspection, read-out: Anti-Candida (minimum inhibitory concentration, MIC). As for the experimental part:
as §4, §5, §6

In brackets after ≈: the same amount, converted by molar mass.

For `Nc1ncccc1-c1cc(Cc2ccc(OCc3cccc[n+]3COP(=O)([O-])O)cc2)no1` [Example 1, 2-((4-((5-(2-Amino-3-pyridinyl)-3-isoxazolyl)methyl)phenoxy)methyl)-1-((phosphonooxy)methyl)pyridinium mono-trifluoroacetate], the “Conversion into the parent compound (compound of Reference Example 1)” value in data set [1] and in data set [2] was “converted into the parent compound” throughout. Besides, the solubility in data set [3] (pH 3), in data set [3] (pH 7) and in data set [3] (pH 9) was greater than 70000 µg/mL each time.
For the compound `Nc1ncccc1-c1cc(Cc2ccc(OCc3ccccn3)cc2)no1` [Reference Example 1, 3-(3-(4-(Pyridin-2-ylmethoxy)-benzyl)-isoxazol-5-yl)-pyridin-2-ylamine], the MIC in data set [4] was determined as 0.39 µg/mL (≈ 1.09 µM); in data set [5] it was 0.2 µg/mL (≈ 0.558 µM). The solubility in data set [3] (pH 3) was 400 µg/mL (≈ 1120 µM); in data set [3] (pH 7) it was less than 100 µg/mL; in data set [3] (pH 9), less than 100 µg/mL.

These data come from patent US20100331282A1, “PYRIDINE DERIVATIVE CONTAINING ((PHOSPHONOOXY)METHYL)PYRIDINIUM RING, AND ANTIFUNGAL AGENT CONTAINING THESE DERIVATIVE” (priority 2009, published 2010).
